This is an account of results in patent US11230547B2, “Purine inhibitors of human phosphatidylinositol 3-kinase delta” (Merck Sharp & Dohme Corp., priority 2017, dated 2022).

One assay has as its target PI3Kdelta (Homo sapiens (Human), UniProt O00329). Put plainly: HTRF PI3K biochemical assay, delta isoform. The conditions noted are these: 0.3 nM enzyme, 100 uM ATP, 5 uM PIP2, form screened per table. From the text: (§1) HTRF PI3K Biochemical Assay to Measure Intrinsic Potency of Compound Inhibitors
(§2) The PI3-Kinase biochemical assays were developed to measure the intrinsic potency and compound dependent inhibition of the alpha, beta, delta, and gamma PI3K isoform enzymes. This assay was developed and further optimized from a kit produced by Upstate (Millipore catalog #33-047) (Millipore Sigma, Billerica Mass., USA) and has been configured for high throughput screening (HTS) and structure-activity relationship (SAR) screening. Briefly, this procedure exploits the exquisite specificity and high affinity binding of […] phosphatidyl(3,4,5)triphosphate (PIP3) to the GRP1 pleckstrin homology (PH) domain to generate the signal. In the absence of PIP3, an HTRF (Homogeneous Time-Resolved Fluorescence energy transfer) complex is formed consisting of europium (u)-labeled anti-GST, GST tagged GRP1-PH domain, biotin-PIP3 (biotinylated-PIP3) and streptavidin conjugated APC (Allophycocyanin). The native PIP3 produced by PI3-Kinase activity disrupts in a competitive manner the biotin-PIP3 from the pleckstrin homology (PH) domain, resulting in the loss of energy transfer (HTRF complex) and a decrease in the signal. The format of this assay is the same for all 4 isoforms of PI3K; the differences lie in the concentration of enzyme used to achieve robust assay window. The alpha, beta, and delta assays are run at 0.5, 1, and 0.3 nM enzymes and the gamma assay is run at 5 nM enzyme. The ATP concentration is 100 uM in the alpha, beta, and delta assays and 50 uM adenosine triphosphate (ATP) in the gamma assay. All reactions are run at 5 uM PIP2.
(§3) Compounds are serially diluted (3-fold in 100% DMSO) across a 384-well polypropylene source plated from column 3 to column 12 and column 13 to column 22, to yield 10 concentration dose response for each test compound. Columns 1, 2, 23 and 24 contain either only DMSO or pharmacological known control inhibitor. Once titrations are made, 2.5 nL of the compounds on 384 well plates are reformatted and transferred by acoustic dispense in quadruplicates to a 1536 assay plate (Greiner) to assay across all four PI3K isoform enzymes.
(§4) The PI3-Kinase biochemical assay was optimized using the HTRF kit provided by Upstate (Millipore). The assay kit contains six reagents: 1) 4× Reaction Buffer; 2) native PIP2 (substrate); 3) Stop (EDTA); 4) Detection Mix A (Streptavidin-APC); 5) Detection Mix B (Eu-labeled Anti-GST plus GST-tagged PH-domain); 6) Detection Mix C. In addition, the following items were obtained or purchased; PI3Kinase (catalog #'s alpha 14-602, beta 14-603, gamma 14-558 and delta 14-604 from Upstate Biotechnology now EMD Millipore, Mahopac, N.Y., USA), dithiothreitol (Sigma-Aldrich Corp. (St. Louis, Mo., USA) Catalog #D-5545), Adenosine-5′ triphosphate (InVitrogen (Waltham, Mass., USA), Cat#AS001A), native PIP3 (PI(3,4,5)P3, diC8, H^+, CELLSIGNALS, INC., (Columbus, Ohio, USA) Cat #907) DMSO ((Sigma-Aldrich Corp. (St. Louis, Mo., USA) Catalog #472301).
(§5) PI3Kinase Reaction Buffer is prepared by dilution the stock 1:4 with de-ionized water. DTT (DL-Dithiothreitol), phosphatidylinositol 4,5-bisphosphate (PIP2) and Biotin-PIP3 were added to 1536 assay plate at a final concentration of 5 mM, […] and 25 nM on the day of use. Enzyme addition and compound pre-incubation are initiated by the addition of 1.25 ul of PI3K (at twice its final concentration) in the 1× reaction buffer to all wells using a BioRaptr™ (Beckman Coulter, Waltham, Mass. USA). Plates are incubated at room temperature for 15 minutes. Reactions are initiated by addition of 1.25 ul of 2× substrate solution (PIP2 and ATP in 1× reaction buffer) using BioRaptr™. Plates are incubated in humidified chamber at room temperature for one hour. Reactions are quenched by addition of 0.625 uL of stop solution to all wells using the BioRaptr™. […]

Another assay has as its target PI3Kalpha (Homo sapiens (Human), UniProt P42336). Put plainly: HTRF PI3K biochemical assay, alpha isoform (selectivity versus delta). The conditions noted are these: relative ratio PI3K-alpha IC50 value / PI3K-delta IC50 value.
Text: as §1, §2, §3, §4, §5

SMILES strings stand for the structures.

Chain of PI3Kdelta (O00329 whole entry, canonical isoform): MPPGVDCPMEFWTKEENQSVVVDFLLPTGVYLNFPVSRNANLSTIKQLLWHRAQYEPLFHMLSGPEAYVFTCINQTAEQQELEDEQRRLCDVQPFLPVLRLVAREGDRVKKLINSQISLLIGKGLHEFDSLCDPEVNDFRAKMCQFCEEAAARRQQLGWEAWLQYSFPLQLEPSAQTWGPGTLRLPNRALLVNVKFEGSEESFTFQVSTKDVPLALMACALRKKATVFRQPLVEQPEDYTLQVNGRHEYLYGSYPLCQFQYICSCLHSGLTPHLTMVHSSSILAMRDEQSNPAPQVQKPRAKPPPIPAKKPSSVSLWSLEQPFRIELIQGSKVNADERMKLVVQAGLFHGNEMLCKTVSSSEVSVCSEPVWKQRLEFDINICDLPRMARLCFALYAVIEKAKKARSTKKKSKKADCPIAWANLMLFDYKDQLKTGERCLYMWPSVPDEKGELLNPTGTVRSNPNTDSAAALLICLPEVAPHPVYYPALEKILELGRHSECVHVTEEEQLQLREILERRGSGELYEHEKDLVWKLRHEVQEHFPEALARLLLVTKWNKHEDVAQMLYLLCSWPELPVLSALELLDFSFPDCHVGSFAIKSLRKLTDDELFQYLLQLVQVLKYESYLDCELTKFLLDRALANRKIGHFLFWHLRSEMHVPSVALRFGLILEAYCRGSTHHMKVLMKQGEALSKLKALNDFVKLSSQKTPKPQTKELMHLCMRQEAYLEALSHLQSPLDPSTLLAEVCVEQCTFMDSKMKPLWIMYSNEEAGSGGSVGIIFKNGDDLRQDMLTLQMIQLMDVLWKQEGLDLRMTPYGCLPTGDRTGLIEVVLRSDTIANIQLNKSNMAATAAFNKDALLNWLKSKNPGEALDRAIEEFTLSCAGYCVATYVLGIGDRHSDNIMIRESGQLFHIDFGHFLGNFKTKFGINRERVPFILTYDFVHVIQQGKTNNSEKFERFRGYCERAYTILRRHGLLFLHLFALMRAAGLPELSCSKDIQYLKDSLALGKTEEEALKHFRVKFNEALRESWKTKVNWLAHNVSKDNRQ
Chain of PI3Kdelta (P27986 whole entry partner, canonical isoform): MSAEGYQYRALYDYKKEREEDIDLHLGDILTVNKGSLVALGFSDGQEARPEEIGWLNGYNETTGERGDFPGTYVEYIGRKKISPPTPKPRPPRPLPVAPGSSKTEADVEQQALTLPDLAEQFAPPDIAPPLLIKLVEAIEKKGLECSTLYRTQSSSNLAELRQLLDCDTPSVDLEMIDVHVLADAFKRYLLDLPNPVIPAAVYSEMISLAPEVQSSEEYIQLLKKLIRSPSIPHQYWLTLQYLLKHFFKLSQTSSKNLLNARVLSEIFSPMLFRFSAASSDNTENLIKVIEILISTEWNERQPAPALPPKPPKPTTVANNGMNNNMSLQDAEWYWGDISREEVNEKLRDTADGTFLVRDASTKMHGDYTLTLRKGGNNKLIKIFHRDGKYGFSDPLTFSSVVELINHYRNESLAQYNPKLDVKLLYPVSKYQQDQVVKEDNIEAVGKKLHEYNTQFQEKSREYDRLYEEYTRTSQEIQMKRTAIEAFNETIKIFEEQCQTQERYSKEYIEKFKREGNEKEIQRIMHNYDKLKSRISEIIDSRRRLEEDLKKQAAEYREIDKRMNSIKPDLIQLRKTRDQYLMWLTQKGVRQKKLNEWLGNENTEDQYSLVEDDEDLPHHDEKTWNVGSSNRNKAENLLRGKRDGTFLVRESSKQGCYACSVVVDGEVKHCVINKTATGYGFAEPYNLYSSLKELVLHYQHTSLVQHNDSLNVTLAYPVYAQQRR
Chain of PI3Kalpha (P42336 whole entry, canonical isoform): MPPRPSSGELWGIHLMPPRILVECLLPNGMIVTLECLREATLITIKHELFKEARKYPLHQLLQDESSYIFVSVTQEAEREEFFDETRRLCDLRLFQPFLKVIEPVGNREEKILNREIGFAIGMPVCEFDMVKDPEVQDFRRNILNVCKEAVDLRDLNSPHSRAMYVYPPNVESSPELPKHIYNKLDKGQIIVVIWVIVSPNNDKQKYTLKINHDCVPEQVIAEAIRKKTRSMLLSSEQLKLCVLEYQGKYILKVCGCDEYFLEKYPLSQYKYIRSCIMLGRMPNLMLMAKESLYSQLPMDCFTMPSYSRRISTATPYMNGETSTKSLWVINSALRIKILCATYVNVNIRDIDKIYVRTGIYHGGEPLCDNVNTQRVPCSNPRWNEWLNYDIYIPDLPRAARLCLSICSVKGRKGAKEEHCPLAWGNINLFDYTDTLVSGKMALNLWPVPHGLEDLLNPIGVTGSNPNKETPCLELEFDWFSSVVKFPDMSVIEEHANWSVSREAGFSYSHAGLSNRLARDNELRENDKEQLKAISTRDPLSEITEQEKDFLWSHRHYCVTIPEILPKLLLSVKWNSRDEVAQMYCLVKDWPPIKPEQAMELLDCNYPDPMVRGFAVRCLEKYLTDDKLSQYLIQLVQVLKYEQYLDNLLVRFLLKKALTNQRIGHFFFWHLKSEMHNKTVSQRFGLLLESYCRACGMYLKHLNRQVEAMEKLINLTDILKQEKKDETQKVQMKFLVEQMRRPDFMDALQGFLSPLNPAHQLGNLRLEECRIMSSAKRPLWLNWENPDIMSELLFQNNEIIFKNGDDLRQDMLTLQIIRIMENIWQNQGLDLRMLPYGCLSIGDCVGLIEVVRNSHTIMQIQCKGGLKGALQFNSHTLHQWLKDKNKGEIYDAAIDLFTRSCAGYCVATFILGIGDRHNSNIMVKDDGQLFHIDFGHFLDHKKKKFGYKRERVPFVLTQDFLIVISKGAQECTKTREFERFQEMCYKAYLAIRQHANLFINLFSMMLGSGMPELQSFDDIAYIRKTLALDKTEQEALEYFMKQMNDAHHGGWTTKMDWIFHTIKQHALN
Chain of PI3Kalpha (P27986 whole entry partner, canonical isoform): as the sequence (P27986 whole entry partner, canonical isoform) above

Turning to `CCNC(=O)N1C[C@@H]2CC1CN2c1nc(-c2cnn(C)c2)ncc1C#N` (stereo in doubt) [Compound 2-4, (1R,4S)-5-[5-cyano-2-(1-methyl-1H-pyrazol-4-yl)pyrimidin-4-yl]-N-ethyl-2,5-diazabicyclo[2.2.1]heptane-2-carboxamide], on PI3Kdelta, the IC50 amounted to 2200 nM. Further, the “Selectivity versus PI3Kalpha” value on PI3Kalpha is given as 5.
`C[C@@H]1CN(c2nc(-c3cnn(C)c3)nc(OCC(F)(F)F)c2C#N)CCN1C(=O)C1CC1` [Compound 6-22, 4-[(3R)-4-(cyclopropylcarbonyl)-3-methylpiperazin-1-yl]-2-(1-methyl-1H-pyrazol-4-yl)-6-(2,2,2-trifluoroethoxy)pyrimidine-5-carbonitrile]: inhibition against PI3Kdelta was half-maximal at 9.7 nM (IC50). Besides, the “Selectivity versus PI3Kalpha” value at PI3Kalpha is reported as above 10.
For the molecule `Cn1cc(-c2ncc(C#N)c(N3CC4C[C@H]3CN4c3cccc(-n4cccc4)c3)n2)cn1` (stereo in doubt) [Compound 1-9, 2-(1-methyl-1H-pyrazol-4-yl)-4-{(1S,4R)-5-[3-(1H-pyrrol-1-yl)phenyl]-2,5-diazabicyclo[2.2.1]hept-2-yl}pyrimidine-5-carbonitrile], the IC50 against PI3Kdelta turned out to be 90 nM. Besides, the “Selectivity versus PI3Kalpha” value at PI3Kalpha is given as above 10.
On PI3Kdelta, `Cn1cc(-c2ncc(C#N)c(N3CCN(c4cccc(F)c4)C(C)(C)C3)n2)cn1` [Compound 3-1, 4-[4-(3-fluorophenyl)-3,3-dimethylpiperazin-1-yl]-2-(1-methyl-1H-pyrazol-4-yl)pyrimidine-5-carbonitrile] had an IC50 of 1500 nM. In addition, the “Selectivity versus PI3Kalpha” value at PI3Kalpha is 8.
For `CCc1nc(-c2cnn(C)c2)nc(N2CCN(C(=O)C3CC3)[C@H](C)C2)c1C#N` [Compound 6-6, 4-[(3R)-4-(cyclopropylcarbonyl)-3-methylpiperazin-1-yl]-6-ethyl-2-(1-methyl-1H-pyrazol-4-yl)pyrimidine-5-carbonitrile] the same measures were 220 nM and above 10.
Molecule `C[C@@H]1CN(c2ncc(C#N)c(-c3cn(C)nc3C#N)n2)CCN1C(=O)C1CC1` [Compound 6-13, 4-(3-cyano-1-methyl-1H-pyrazol-4-yl)-2-[(3R)-4-(cyclopropylcarbonyl)-3-methylpiperazin-1-yl]pyrimidine-5-carbonitrile] came in with an IC50 on PI3Kdelta of 180 nM. Also, the “Selectivity versus PI3Kalpha” value at PI3Kalpha is above 10.
The molecule `C[C@@H]1CN(c2nc(-c3cnn(C)c3)ncc2C#N)CCN1c1cccc(S(C)(=O)=O)c1` [Compound 4-13, 4-{(3R)-3-methyl-4-[3-(methylsulfonyl)phenyl]piperazin-1-yl}-2-(1-methyl-1H-pyrazol-4-yl)pyrimidine-5-carbonitrile] gave an IC50 at PI3Kdelta of 30 nM. Moreover, the “Selectivity versus PI3Kalpha” value at PI3Kalpha was above 10.
Regarding `Cn1cc(-c2ncc(C#N)c(N3CC4C[C@H]3CN4C(=O)C(C)(C)CF)n2)cn1` (stereo in doubt) [Compound 2-6, 4-[(1S,4R)-5-(3-fluoro-2,2-dimethylpropanoyl)-2,5-diazabicyclo[2.2.1]hept-2-yl]-2-(1-methyl-1H-pyrazol-4-yl)pyrimidine-5-carbonitrile], the IC50 at PI3Kdelta was found to be 160 nM. Besides, the “Selectivity versus PI3Kalpha” value at PI3Kalpha was above 10.
As to `Cn1cc(-c2ncc(C#N)c(N3C[C@H]4C[C@H]3CN4c3cccc([N+](=O)[O-])c3)n2)cn1` [Compound 1-10, 2-(1-methyl-1H-pyrazol-4-yl)-4-[(1S,4R)-5-(3-nitrophenyl)-2,5-diazabicyclo[2.2.1]hept-2-yl]pyrimidine-5-carbonitrile], on PI3Kdelta, the IC50 was determined as 38 nM. This lies in the double-digit nanomolar range.
As to `Cn1cc(-c2ncc(C#N)c(N3CC4C[C@H]3CN4c3cccc([N+](=O)[O-])c3)n2)cn1` (stereo in doubt) [Compound 1-10, 2-(1-methyl-1H-pyrazol-4-yl)-4-[(1S,4R)-5-(3-nitrophenyl)-2,5-diazabicyclo[2.2.1]hept-2-yl]pyrimidine-5-carbonitrile], on PI3Kalpha, the “Selectivity versus PI3Kalpha” value is recorded as above 10.
